The values below come from patent publication US20100120690A1, “Polypeptides Having Antimicrobial Activity and Polynucleotides Encoding Same” (Novozymes Adenium Biotech A/S, priority 2005, published 2010).

The first experiment relates to panel of 6 different strains of Staphylococcus aureus. In words: Average MIC, NCCLS/CLSI guidelines using caMHB (Example 6). It is filed as cell-based. Conditions: average over 6 S. aureus strains, duplicate; MIC above 32 counted as 64; read after 18-24 hours at 37° C. On the procedure: A large number of antimicrobial peptides of the invention were tested against a panel of 6 different strains of Staphylococcus aureus listed below:
Staphylococcus aureus, ATCC29213, MSSA, NCCLS reference strain; Staphylococcus aureus, ATCC25923, MSSA, NCCLS reference strain; Staphylococcus aureus, ATCC29737, MSSA; Staphylococcus aureus, E33235, MSSA; Staphylococcus aureus, 698-01, MRSA ST5, Str, Kan, Oxa; Staphylococcus aureus, 566-03, MRSA ST80, Oxa, Tet, Fus, Kan.
The staphylococci were exposed to the following peptide concentrations: 32; 16; 8; 4; 2; 1; 0.5; 0.25; 0.13; […]; and 0.03 microgram/mL. All peptides were purified, HPLC quantified and the concentrated peptides (>160 micrograms/mL) were diluted to 160 micrograms/mL in peptide dilution buffer (0.1% BSA, 0.01% Acetic Acid).
The MIC determination was done essentially as described by NCCLS/CLSI guidelines using caMHB. The MICs were read after 18-24 hours of 37° C. incubations and recorded along with the CFU in the table below.
A total number of 95 antimicrobial peptides of the invention were evaluated in duplicate against the 6 bacterial strains described above.
In the majority of the double determinations (93%), the MIC varied <2 fold. An average MIC is tabulated below. If the MIC was above 32 micrograms/mL, a value of 64 was used to calculate the average.
Consider “D11G + N17I: antimicrobial peptide of the invention, Plectasin variant (GFGCNGPWDEGDMQCHIHCKSIKGYKGGYCAKGGFVCKCY)”, for which the “Average MIC” value was found to be 16 micrograms/mL.
“K26C + Y40YRCG: antimicrobial peptide of the invention, Plectasin variant (GFGCNGPWDEDDMQCHNHCKSIKGYCGGYCAKGGFVCKCYRCG)”: the “Average MIC” value is listed as 11 micrograms/mL.
The same measure, in the same setting: under “M13A + Q14K + K26R: antimicrobial peptide of the invention, Plectasin variant (GFGCNGPWDEDDAKCHNHCKSIKGYRGGYCAKGGFVCKCY)” stands 9 micrograms/mL; under “M13R + Q14K + K26R: antimicrobial peptide of the invention, Plectasin variant (GFGCNGPWDEDDRKCHNHCKSIKGYRGGYCAKGGFVCKCY)”, 5 micrograms/mL; under “M13S + Q14K + K26R: antimicrobial peptide of the invention, Plectasin variant (GFGCNGPWDEDDSKCHNHCKSIKGYRGGYCAKGGFVCKCY; Synthetic antimicrobial polypeptide)”, 15 micrograms/mL.
The same measure, in the same setting: under “N5D + D9S + Q14R: antimicrobial peptide of the invention, Plectasin variant (GFGCDGPWSEDDMRCHNHCKSIKGYKGGYCAKGGFVCKCY)” stands 16 micrograms/mL.
For the substance “N5G + D9A + Q14S + K23T + A31T: antimicrobial peptide of the invention, Plectasin variant (GFGCGGPWAEDDMSCHNHCKSITGYKGGYCTKGGFVCKCY)”, the “Average MIC” value amounted to 14 micrograms/mL.
Still for that read-out and setting: under “N5G + M13W + N17S: antimicrobial peptide of the invention, Plectasin variant (GFGCGGPWDEDDWQCHSHCKSIKGYKGGYCAKGGFVCKCY)” stands 10 micrograms/mL.
The same measure, in the same setting: for “N5G + M13W: antimicrobial peptide of the invention, Plectasin variant (GFGCGGPWDEDDWQCHNHCKSIKGYKGGYCAKGGFVCKCY)” the value was 9 micrograms/mL; for “N5H + M13E + N17E: antimicrobial peptide of the invention, Plectasin variant (GFGCHGPWDEDDEQCHEHCKSIKGYKGGYCAKGGFVCKCY)”, 12 micrograms/mL; for “N5K + M13L: antimicrobial peptide of the invention, Plectasin variant (GFGCKGPWDEDDLQCHNHCKSIKGYKGGYCAKGGFVCKCY)”, 9 micrograms/mL.
“N5S + M13V + N17A: antimicrobial peptide of the invention, Plectasin variant (GFGCSGPWDEDDVQCHAHCKSIKGYKGGYCAKGGFVCKCY)”: the “Average MIC” value turned out to be 18 micrograms/mL.
On the same count and under the same terms, under “N5S + M13V + N17T: antimicrobial peptide of the invention, Plectasin variant (GFGCSGPWDEDDVQCHTHCKSIKGYKGGYCAKGGFVCKCY)” stands 16 micrograms/mL; under “N17A: antimicrobial peptide of the invention, Plectasin variant (GFGCNGPWDEDDMQCHAHCKSIKGYKGGYCAKGGFVCKCY) [Mutation N17A]”, 15 micrograms/mL.
On the same count and under the same terms, for “N17F: antimicrobial peptide of the invention, Plectasin variant (GFGCNGPWDEDDMQCHFHCKSIKGYKGGYCAKGGFVCKCY) [Mutation N17F]” the value was 12 micrograms/mL; for “N17K + K32R: antimicrobial peptide of the invention, Plectasin variant (GFGCNGPWDEDDMQCHKHCKSIKGYKGGYCARGGFVCKCY)”, 7 micrograms/mL.
Take “N17K: antimicrobial peptide of the invention, Plectasin variant (GFGCNGPWDEDDMQCHKHCKSIKGYKGGYCAKGGFVCKCY) [Mutation N17K]”: the “Average MIC” value stood at 11 micrograms/mL.
On to “N17R + Y25R: antimicrobial peptide of the invention, Plectasin variant (GFGCNGPWDEDDMQCHRHCKSIKGRKGGYCAKGGFVCKCY)”, for which the “Average MIC” value came to 18 micrograms/mL.
Same read-out and setting: under “N17S: antimicrobial peptide of the invention, Plectasin variant (GFGCNGPWDEDDMQCHSHCKSIKGYKGGYCAKGGFVCKCY) [Mutation N17S]” stands 14 micrograms/mL; under “N17T: antimicrobial peptide of the invention, Plectasin variant (GFGCNGPWDEDDMQCHTHCKSIKGYKGGYCAKGGFVCKCY) [Mutation N17T]”, 21 micrograms/mL.

The subject of another experiment is Staphylococcus carnosus ATCC51365. As to the kind of experiment: Yeast screening assay: radial diffusion assay of yeast supernatants. The experiment is classed as cell-based. On the set-up: key: An activity of 3 is better than Plectasin; An activity of 2 corresponds to the activity of Plectasin; 1 is worse than Plectasin. Conditions: yeast supernatant, clearing zone in radial diffusion assay. The method in brief: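 Supernatants from S. cerevisiae expressing plectasin variants, grown 3 days at 30 °C in galactose medium, were applied to agarose containing 5×10^5 cfu/mL S. carnosus. Plates were incubated 3 h at 37 °C, overlaid, left overnight and MTT-stained. Clearing zones were scored as 2 = plectasin-like, 3 = better, 1 = worse.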
As for “GFGCNGPWDGDDMQCHNHCKSIKGYKGGYCAKGGFVCKCY [Mutation E10G]”, the “Activity (antimicrobial activity relative to the activity of plectasin)” value amounted to 3.
The same measure, in the same setting: for “GFGCNGPWDGDDMRCHNHCKSIKGYKGGYCAKGGFVCKCY [E10G + Q14R]” the value was 3.
On the same count and under the same terms, for “GFGCNGPWDLDDMQCHNHCKSIKGYKGGYCAKGGFVCKCY [Mutation E10L]” the value was 2; for “GFGCNGPWDQDDMQCHNHCKSIKGYKGGYCAKGGFVCKCY [Mutation E10Q]”, 2; for “GFGCNGPWDSDDMQCHNHCKSIKGYKGGYCAKGGFVCKCY [Mutation E10S]”, 3.
Same read-out and setting: for “GFGCNGPWFEDDMQCHNHCKSIKGYKGGYCAKGGFVCKCY [Mutation D9F]” the value was 3.
For the substance “GFGCNGPWHEDDMQCHNHCKSIKGYKGGYCAKGGFVCKCY [Mutation D9H]”, the “Activity (antimicrobial activity relative to the activity of plectasin)” value amounted to 3.
For the substance “GFGCNGPWIEDDMQCHNHCKSIKGYKGGYCAKGGFVCKCY [Mutation D9I]”, the “Activity (antimicrobial activity relative to the activity of plectasin)” value came to 2.
Consider “GFGCNGPWLEDDMQCHNHCKSIKGYKGGYCAKGGFVCKCY [Mutation D9L]”, for which the “Activity (antimicrobial activity relative to the activity of plectasin)” value is recorded as 3.
On to “GFGCNGPWLEDDMQCHNHCKSIKGYNGGYCAKGGFVCKCY [D9L + K26N]”, for which the “Activity (antimicrobial activity relative to the activity of plectasin)” value is reported as 2.
The same measure, in the same setting: under “GFGCNGPWMEDDMQCHNHCKSIKGYKGGYCAKGGFVCKCY [Mutation D9M]” stands 3; under “GFGCNGPWNEDDMQCHNHCKSIKGYKGGYCAKGGFVCKCY [Mutation D9N]”, 3; under “GFGCNGPWPEDDMQCHNHCKSIKGYKGGYCAKGGFVCKCY [Mutation D9P]”, 3.
On the same count and under the same terms, for “GFGCNGPWQEDDMQCHNHCKSIKGYKGGYCAKGGFVCKCY [Mutation D9Q]” the value was 3.
For the substance “GFGCNGPWREDDMQCHNHCKSIKGYKGGYCAKGGFVCKCY [Mutation D9R]”, the “Activity (antimicrobial activity relative to the activity of plectasin)” value is given as 2.
Consider “GFGCNGPWTEDDMQCHNHCKSIKGYKGGYCAKGGFVCKCY [Mutation D9T]”, for which the “Activity (antimicrobial activity relative to the activity of plectasin)” value was determined as 3.
Take “GFGCNGPWWEDDMQCHNHCKSIKGYKGGYCAKGGFVCKCY [Mutation D9W]”: the “Activity (antimicrobial activity relative to the activity of plectasin)” value came out at 2.
On the same count and under the same terms, under “GFGCNGPWYEDDMQCHNHCKSIKGYKGGYCAKGGFVCKCY [Mutation D9Y]” stands 3.
With “GFGCNGRWDEDDMQCHNHCKSIKGYKGGYCAKGGFVCKCY [Mutation P7R]”, the “Activity (antimicrobial activity relative to the activity of plectasin)” value was determined as 3.
The same measure, in the same setting: for “GFGCNGVWDEDDMQCHNHCKSIKGYKGGYCAKGGFVCKCY [Mutation P7V]” the value was 2; for “GFGCNKPWDEDDMQCHNHCKSIKGYKGGYCAKGGFVCKCY [Mutation G6K]”, 2.
The same measure, in the same setting: for “GFGCNRPWDEDDMQCHNHCKSIKGYKGGYCAKGGFVCKCY [Mutation G6R]” the value was 2; for “GFGCQGPWDEDDMQCHNHCKSIKGYKGGYCAKGGFVCKCY [Mutation N5Q]”, 3; for “GFGCVGPWDEDDMQCHNHCKSIKGYKGGYCAKGGFVCKCY [Mutation N5V]”, 3.
Still for that read-out and setting: under “GIGCNGPWDEDDMQCHNHCKSIKGYKGGYCAKGGFVCKCY [Mutation F2I]” stands 2.
Turning to “GLGCNGPWDEDDMQCHNHCKSIKGYKGGYCAKGGFVCKCY [Mutation F2L]”, the “Activity (antimicrobial activity relative to the activity of plectasin)” value is given as 2.
Still for that read-out and setting: under “GWGCNGPWDEDDMQCHNHCKSIKGYKGGYCAKGGFVCKCY [Mutation F2W]” stands 2.
